According to patent US10869931B2, “Polyethylene glycol-modified angiogenesis inhibitor HM-1 and application thereof” (NANJING ANJI BIOLOGICAL TECHNOLOGY CO.,LTD, priority 2016, dated 2020):
Marks after values point to notes of the source that are not given here. Where no end group is shown, it is not given here.

Tests used:
Brain tumor cells = experiment: MTT proliferation inhibition, brain tumor cells; assay type: cell-based, human; set-up: concentration or dose not given beside the values; settings: 48 h
Method in brief: (§1)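 Tumour cells plated at 2×10^4 cells/mL, attached overnight, then exposed to dilutions of mPEG-HM-1 for 48 h at 37 °C, 5% CO2. MTT added 4 h, formazan dissolved in DMSO, absorbance 570/630 nm; growth inhibition = 1 − treated/untreated, three independent repeats, mean±SD.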

[1] = tested on: Thyroid cancer tumor cells; experiment: MTT proliferation inhibition, thyroid cancer cells; assay type: cell-based, human; set-up: concentration or dose not given beside the values; settings: 48 h
Method in brief: as §1

Liver cancer tumor cells = experiment: MTT proliferation inhibition, liver cancer cells; assay type: cell-based, human; set-up: concentration or dose not given beside the values; settings: 48 h
Method in brief: as §1

[2] = tested on: Kidney cancer tumor cells; experiment: MTT proliferation inhibition, kidney cancer cells; assay type: cell-based, human; set-up: concentration or dose not given beside the values; settings: 48 h
Method in brief: as §1

[3] = tested on: Cervical cancer tumor cells; experiment: MTT proliferation inhibition, cervical cancer cells; assay type: cell-based, human; set-up: concentration or dose not given beside the values; settings: 48 h
Method in brief: as §1

[4] = tested on: Human Umbilical Vein Endothelial Cells (HUVEC); experiment: Transwell migration of HUVEC; assay type: cell-based; settings: 24 h
Method in brief: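 HUVEC (1×10^5/mL in blank medium) seeded with test solutions into Matrigel-coated transwell inserts, lower chamber holding medium with 5% FBS and 1% ECGS, 24 h at 37 °C. Migrated cells crystal-violet stained and counted in four fields; migration inhibition calculated from test versus blank-control counts, three independent repeats.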

[5] = tested on: IL-1β production by mouse peritoneal macrophages; experiment: IL-1β production by mouse peritoneal macrophages (ELISA); assay type: cell-based; settings: 48 h
Method in brief: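 Starch-elicited mouse peritoneal macrophages (2×10^6 cells/mL), adhered 3 h, treated with low, medium and high concentrations of mPEG-HM-1 for 48 h; dexamethasone as positive control. Supernatant IL-1β quantified by sandwich ELISA at OD450.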

[6] = tested on: xylene-induced ear swelling in Kunming mice; experiment: Xylene-induced ear swelling in mice; assay type: in vivo, mouse; settings: for Swelling: 2 h after xylene; for Inhibition rate: ear swelling vs control
Method in brief: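 Kunming mice were dosed once daily for 5 days (aspirin 200 mg/kg as positive control, saline as blank). One hour after the last dose, xylene was applied to the right ear, with the left ear as untreated reference. Ear punches were weighed 2 h later; swelling degree = right − left weight, rate = degree/left weight ×100%.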

[7] = 160 mg/kg once daily for 5 days

Substance	rate of growth inhibition (Brain tumor cells)	rate of growth inhibition [1]	rate of growth inhibition (Liver cancer tumor cells)	rate of growth inhibition [2]	rate of growth inhibition [3]	cell migration number (Mean ± SD) ([4]; 90 μg/mL)	inhibition rate of HUVEC migration ([4]; 90 μg/mL)	cell migration number (Mean ± SD) ([4]; 100 μg/mL)	inhibition rate of HUVEC migration ([4]; 100 μg/mL)	IL-1β ([5]; 40 μg/mL)	Inhibition Rate of IL-1β production ([5]; 40 μg/mL)	IL-1β ([5]; 80 μg/mL)	Inhibition Rate of IL-1β production ([5]; 80 μg/mL)	Swelling ([6]; 40 mg/kg once daily for 5 days)	Inhibition rate ([6]; 40 mg/kg once daily for 5 days)	Swelling ([6]; 80 mg/kg once daily for 5 days)	Inhibition rate ([6]; 80 mg/kg once daily for 5 days)	inhibition rate of HUVEC migration ([4]; 70 μg/mL)	IL-1β ([5]; 20 μg/mL)	Inhibition Rate of IL-1β production ([5]; 20 μg/mL)	also measured
mPEG2-NHS40k-Arg-Gly-Ala-Asp-Arg-Ala-Gly-Gly-Gly-Gly-Arg-Gly-Asp ({mPEG2‑NHS 40 kDa}-RGADRAGGGGRGD) [mPEG2-NHS40k-HM-1]	42.56 ± 11.38%	45.19 ± 14.07%	53.77 ± 13.64%	58.73 ± 14.31%	57.33 ± 14.28%	640.05 ± 50.70	38.26%*	516.99 ± 60.04	50.13%	756.84 ± 15.32 pg/mL	18.28%	673.30 ± 16.71 pg/mL	27.30%	5.47 ± 0.12 mg	11.52%	4.83 ± 0.67* mg	21.88%	–	–	–	cell migration number (Mean ± SD) ([4]; 110 μg/mL): 464.43 ± 46.48; inhibition rate of HUVEC migration ([4]; 110 μg/mL): 55.20%; cell migration number (Mean ± SD) ([4]; 120 μg/mL): 584.48 ± 52.28; inhibition rate of HUVEC migration ([4]; 120 μg/mL): 43.62%*; IL-1β ([5]; 160 μg/mL): 568.00 ± 10.82 pg/mL; Inhibition Rate of IL-1β production ([5]; 160 μg/mL): 38.67%; Swelling [6, 7]: 4.19 ± 0.34** mg; Inhibition rate [6, 7]: 32.26%
mPEG-SC40k-Arg-Gly-Ala-Asp-Arg-Ala-Gly-Gly-Gly-Gly-Arg-Gly-Asp ({mPEG‑SC 40 kDa}-RGADRAGGGGRGD) [mPEG-SC40k-HM-1]	52.89 ± 15.41%	50.13 ± 14.21%	60.37 ± 14.74%	62.23 ± 16.51%	61.52 ± 15.11%	632.63 ± 58.69	40.36%*	501.84 ± 62.84	52.69%	774.07 ± 15.32 pg/mL	17.39%	670.72 ± 16.71 pg/mL	28.42%	5.51 ± 0.13 mg	10.27%	4.76 ± 0.72* mg	22.42%	–	–	–	cell migration number (Mean ± SD) ([4]; 110 μg/mL): 464.50 ± 48.47; inhibition rate of HUVEC migration ([4]; 110 μg/mL): 56.21%; cell migration number (Mean ± SD) ([4]; 120 μg/mL): 542.89 ± 49.29; inhibition rate of HUVEC migration ([4]; 120 μg/mL): 48.82%*; IL-1β ([5]; 160 μg/mL): 553.22 ± 10.82 pg/mL; Inhibition Rate of IL-1β production ([5]; 160 μg/mL): 40.96%; Swelling [6, 7]: 3.87 ± 0.27** mg; Inhibition rate [6, 7]: 37.01%
mPEG-ALD10k-Arg-Gly-Ala-Asp-Arg-Ala-Gly-Gly-Gly-Gly-Arg-Gly-Asp ({mPEG‑ALD 10 kDa}-RGADRAGGGGRGD) [mPEG-ALD10k-HM-1]	58.25 ± 14.02%	55.30 ± 13.10%	70.55 ± 20.09%	75.23 ± 19.11%	83.04 ± 18.74%	–	–	–	–	455.16 ± 10.95 pg/mL	–	–	–	3.58 ± 0.33** mg	41.58%	–	–	59.38%	620.94 ± 18.43 pg/mL	32.28%	cell migration number (Mean ± SD) ([4]; 50 μg/mL): 604.31 ± 52.14; inhibition rate of HUVEC migration ([4]; 50 μg/mL): 41.27%*; cell migration number (Mean ± SD) ([4]; 60 μg/mL): 514.38 ± 42.38; inhibition rate of HUVEC migration ([4]; 60 μg/mL): 50.01%; cell migration number (Mean ± SD) ([4]; 70 μg/mL): 417.96 ± 50.48; cell migration number (Mean ± SD) ([4]; 80 μg/mL): 548.54 ± 56.22; inhibition rate of HUVEC migration ([4]; 80 μg/mL): 46.69%*; IL-1β ([5]; 10 μg/mL): 724.09 ± 16.59 pg/mL; Inhibition Rate of IL-1β production ([5]; 10 μg/mL): 21.03%; Swelling ([6]; 10 mg/kg once daily for 5 days): 5.36 ± 0.12 mg; Inhibition rate ([6]; 10 mg/kg once daily for 5 days): 12.36%; Swelling ([6]; 20 mg/kg once daily for 5 days): 4.67 ± 0.79* mg; Inhibition rate ([6]; 20 mg/kg once daily for 5 days): 23.67%
mPEG-bALD10k-Arg-Gly-Ala-Asp-Arg-Ala-Gly-Gly-Gly-Gly-Arg-Gly-Asp ({mPEG‑bALD 10 kDa}-RGADRAGGGGRGD) [mPEG-bALD10k-HM-1]	59.37 ± 14.52%	55.74 ± 13.13%	68.59 ± 20.19%	70.19 ± 18.11%	80.08 ± 18.34%	504.35 ± 48.36	53.82%**	568.57 ± 56.90	47.94%*	460.53 ± 10.42 pg/mL	–	–	–	3.59 ± 0.35** mg	40.88%	–	–	60.38%**	633.90 ± 14.73 pg/mL	31.26%	cell migration number (Mean ± SD) ([4]; 50 μg/mL): 589.97 ± 56.24; inhibition rate of HUVEC migration ([4]; 50 μg/mL): 45.98%*; cell migration number (Mean ± SD) ([4]; 60 μg/mL): 483.16 ± 50.26; inhibition rate of HUVEC migration ([4]; 60 μg/mL): 55.76%; IL-1β ([5]; 10 μg/mL): 720.77 ± 16.65 pg/mL; Inhibition Rate of IL-1β production ([5]; 10 μg/mL): 21.84%; Swelling ([6]; 10 mg/kg once daily for 5 days): 5.37 ± 0.14 mg; Inhibition rate ([6]; 10 mg/kg once daily for 5 days): 11.54%; Swelling ([6]; 20 mg/kg once daily for 5 days): 4.64 ± 0.72* mg; Inhibition rate ([6]; 20 mg/kg once daily for 5 days): 23.63%
mPEG-ALD20k-Arg-Gly-Ala-Asp-Arg-Ala-Gly-Gly-Gly-Gly-Arg-Gly-Asp ({mPEG‑ALD 20 kDa}-RGADRAGGGGRGD) [mPEG-ALD20k-HM-1]	56.89 ± 15.41%	50.35 ± 15.23%	65.31 ± 18.18%	70.23 ± 20.58%	75.66 ± 20.10%	403.15 ± 48.80	60.82%	564.59 ± 50.42	45.13%*	628.18 ± 15.34 pg/mL	31.49%	438.93 ± 12.56 pg/mL	52.13%	4.52 ± 0.32* mg	26.19%	3.70 ± 0.20** mg	39.47%	40.53%*	729.13 ± 13.12 pg/mL	20.48%	cell migration number (Mean ± SD) ([4]; 70 μg/mL): 611.92 ± 52.08; cell migration number (Mean ± SD) ([4]; 80 μg/mL): 507.07 ± 40.74; inhibition rate of HUVEC migration ([4]; 80 μg/mL): 50.72%; Swelling ([6]; 20 mg/kg once daily for 5 days): 4.89 ± 0.20 mg; Inhibition rate ([6]; 20 mg/kg once daily for 5 days): 20.10%; inhibition rate of ear swelling ([6]; 80 mg/kg, once daily for 5 days, mice): 37.76%
